Measured values taken from ChEMBL document CHEMBL2321774, “The C-terminus of Botulinum A Protease Has Profound and Unanticipated Kinetic Consequences Upon the Catalytic Cleft” (ACS Med Chem Lett, 2013).
pKi: −log10 of the molar value.

Target: Botulinum neurotoxin type A (Clostridium botulinum, UniProt P0DPI0)
Sequence (P0DPI0 2-448 limits assumed): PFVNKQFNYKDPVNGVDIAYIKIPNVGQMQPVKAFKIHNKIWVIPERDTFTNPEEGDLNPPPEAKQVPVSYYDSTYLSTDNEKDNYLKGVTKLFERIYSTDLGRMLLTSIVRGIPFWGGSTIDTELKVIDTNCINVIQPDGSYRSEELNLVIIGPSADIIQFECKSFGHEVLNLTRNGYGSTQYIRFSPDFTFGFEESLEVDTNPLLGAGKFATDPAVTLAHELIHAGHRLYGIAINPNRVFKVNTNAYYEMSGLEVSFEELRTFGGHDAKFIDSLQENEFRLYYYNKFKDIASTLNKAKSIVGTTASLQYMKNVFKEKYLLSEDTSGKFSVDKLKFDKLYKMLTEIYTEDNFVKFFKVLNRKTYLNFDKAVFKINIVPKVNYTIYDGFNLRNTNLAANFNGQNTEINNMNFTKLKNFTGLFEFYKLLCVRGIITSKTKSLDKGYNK

COC(=O)c1ccc(O)c2nc3c(C=O)c(O)cc(O)c3nc12 [LOMOFUNGIN]
pKi: 4.60
